In patent US9456599B2, “Adjuvants” (SYNGENTA LIMITED, priority 2012, dated 2016):

Assays:
Format in all cases: in vivo
Septoria tritici [1] = test: Septoria tritici on wheat, isopyrazam with compound E (Example 8); details: wheat leaf area infected 12 days after spray; isopyrazam 3, 10, 30 and 100 mg/l, adjuvant 0.1% by volume; mean over four rates, four replicates
Protocol: Wheat plants were inoculated with the fungus Septoria tritici. Four days after inoculation the plants were sprayed with a diluted suspension concentrate formulation of the fungicide isopyrazam at rates of 3, 10, 30 and 100 mg of the fungicide per liter of spray solution, using a laboratory track sprayer which delivered the spray at a rate of 200 liters per hectare. Spray tests were also carried out with a diluted suspension concentrate additionally comprising the carbonate compound E (see Table 7) added to the spray solution at a rate of 0.1% v/v, based on the quantity of spray liquor. The leaves of the plants were assessed visually 12 days after the spray application and the damage was expressed as the percentage of the leaf area infected. Each spray test was replicated four times across the four application rates.
The results shown in Table 13 below are mean averages over the four rates of isopyrazam and the four replicates, and are compared to the efficacy of isopyrazam in the absence of an adjuvant, and isopyrazam in the presence of oleyl ethoxylate 20EO butyl end capped adjuvant used as a standard adjuvant for comparative purposes (at 0.1% by volume).

Septoria tritici [2] = test: Septoria tritici on wheat, isopyrazam with B92-P-/B96-P-carbonate (Example 10); details: wheat leaf area infected 14 days after spray; isopyrazam 3, 10, 30 and 100 mg/l, adjuvant 0.1% by volume; mean over four rates, twelve replicates
Protocol: Wheat plants were inoculated with the fungus Septoria tritici. Four days after inoculation the plants were sprayed with a diluted suspension concentrate formulation of the fungicide isopyrazam at rates of 3, 10, 30 and 100 mg of the fungicide per liter of spray solution, using a laboratory track sprayer which delivered the spray at a rate of 200 liters per hectare. Spray tests were also carried out with diluted suspension concentrates additionally comprising the carbonates B92-P-carbonate and B96-P-carbonate (see Table 1) which were added to the spray solution at a rate of 0.1% v/v, based on the quantity of spray liquor. The leaves of the plants were assessed visually 14 days after the spray application and the damage was expressed as the percentage of the leaf area infected. Each spray test was replicated twelve times across the four application rates.
The results shown in Table 15 below are mean averages over the four rates of isopyrazam and the twelve replicates, and are compared to the efficacy of isopyrazam in the absence of an adjuvant, and isopyrazam in the presence of oleyl ethoxylate 20EO butyl end capped which was used as a standard for comparative purposes (at 0.1% by volume).

[3] = test system: Brachiaria plantaginea, Digitaria sanguinalis, Commelina benghalensis and Polygonum convulvulus; test: Glasshouse spray test, mesotrione with carbonates A-D (Example 6), mean over four plant species; details: Table 10: mesotrione 30 or 60 g/ha, compounds A-D 0.2%, Tween + Rhodasurf 0.5%; 25 days; mean over rates, replicates, four species
Protocol: (§1) Brachiaria plantaginea, Digitaria sanguinalis, Commelina benghalensis and Polygonum convulvulus seeds were sown into standard soil in pots and cultivated under controlled conditions in a glasshouse (at 24/18° C. day/night; 16 hours light; 65% humidity).
When the plants were at the vegetative stage of 2-4 leaves they were sprayed with an aqueous spray solution containing the herbicide mesotrione and 0.2% v/v of one of the carbonates A, B, C and D (see Table 7).
(§2) The spray solution was applied with a cabinet tracksprayer with a flat fan nozzle (Teejet 11002VS) and an application volume of 200 liter/ha (at 2 bar). Mesotrione was applied at either 30 or 60 grams of pesticide per hectare.
(§3) The test plants were then grown on, in a glasshouse under controlled conditions (at 24/18° C. day/night; 16 hours light; 65% humidity) and watered twice a day. After 25 days the test was evaluated for general crop injury or phytotoxicity (100% equals total damage to a plant; 0% equals no damage to a plant).
(§4) The results shown in Table 10 below are mean averages over the two rates of mesotrione, the three replicates and the four plant species and are compared to the efficacy of mesotrione in the absence of an adjuvant, and mesotrione in the presence of the commercially available tank-mix adjuvant, Tween 20 ®+Rhodasurf DA/630-E® (combined in a 2:1 ratio) at 0.5% by volume.

Digitaria sanguinalis = test: Glasshouse post-emergence spray test, mesotrione with adjuvant (Example 3); details: mesotrione 30 or 60 g/ha, carbonate 0.2% or 0.5% Tween 20 + Rhodasurf DA/630-E; mean over two rates, three replicates, 14 and 21 days
Protocol: as §1
(§5) When the plants were at the vegetative stage of 2-4 leaves they were sprayed with an aqueous spray solution containing the herbicide mesotrione and 0.2% v/v of one of the carbonates B92-P-Carbonate, B92-B-Carbonate and B96-P-Carbonate (see Table 1).
as §2
(§6) The test plants were then grown on, in a glasshouse under controlled conditions (at 24/18° C. day/night; 16 hours light; 65% humidity) and watered twice a day. After 14 and 21 days the test was evaluated for general crop injury (100% equals total damage to a plant; 0% equals no damage to a plant).
as §4, with “5” for “10”, “mesotrione,” for “mesotrione, the”, “two assessment timings,” for “four plant species”, “(2:1” for “(combined”, “water).” for “a 2:1 ratio) at 0.5% by volume.”

Polygonum convulvulus = test: as above; details: mesotrione 30 or 60 g/ha, carbonate 0.2% or 0.5% Tween 20 + Rhodasurf DA/630-E; mean over two rates, three replicates, 14 and 21 days
Protocol: as §1, §5, §2, §6
as §4, with “5” for “10”, “mesotrione,” for “mesotrione, the”, “two assessment timings,” for “four plant species”, “(2:1” for “(combined”, “water).” for “a 2:1 ratio) at 0.5% by volume.”

Commelina benghalensis = test: as above; details: mesotrione 30 or 60 g/ha, carbonate 0.2% or 0.5% Tween 20 + Rhodasurf DA/630-E; mean over two rates, three replicates, 14 and 21 days
Protocol: as §1, §5, §2, §6
as §4, with “5” for “10”, “mesotrione,” for “mesotrione, the”, “two assessment timings,” for “four plant species”, “(2:1” for “(combined”, “water).” for “a 2:1 ratio) at 0.5% by volume.”

Brachiaria plantaginea = test: as above; details: mesotrione 30 or 60 g/ha, carbonate 0.2% or 0.5% Tween 20 + Rhodasurf DA/630-E; mean over two rates, three replicates, 14 and 21 days
Protocol: as §1, §5, §2, §6
as §4, with “5” for “10”, “mesotrione,” for “mesotrione, the”, “two assessment timings,” for “four plant species”, “(2:1” for “(combined”, “water).” for “a 2:1 ratio) at 0.5% by volume.”

[4] = test system: Brachiaria plantaginea, Digitaria sanguinalis, Commelina benghalensis and Polygonum convulvulus; test: Glasshouse post-emergence spray test, mesotrione with adjuvant (Example 3), mean across species; details: mesotrione 30 or 60 g/ha, carbonate 0.2% or 0.5% Tween 20 + Rhodasurf DA/630-E; 14 and 21 days; Tukey HSD letter
Protocol: as §1, §5, §2, §6
as §4, with “5” for “10”, “mesotrione,” for “mesotrione, the”, “two assessment timings,” for “four plant species”, “(2:1” for “(combined”, “water).” for “a 2:1 ratio) at 0.5% by volume.”

[5] = test system: Avena fatua, Lolium perenne, Setaria viridis and Alopecurus myosuroides; test: Glasshouse post-emergence spray test, pinoxaden with adjuvant (Example 4), mean across species; details: pinoxaden 7.5 or 15 g/ha, adjuvant 0.2%; 14 and 21 days; Tukey HSD letter
Description: (§7) When the plants were at the vegetative stage of 2-3 leaves they were sprayed with an aqueous spray solution containing the herbicide pinoxaden and 0.2% v/v of one of the carbonates B92-P-Carbonate, B92-B-Carbonate and B96-P-Carbonate (see Table 1).
(§8) The spray solution was applied with a cabinet tracksprayer with a flat fan nozzle (Teejet 11002VS) and an application volume of 200 liter/ha (at 2 bar). Pinoxaden was applied at either 7.5 or 15 grams of pesticide per hectare. […] After 14 and 21 days the test was evaluated for general crop injury (100% equals total damage to a plant; 0% equals no damage to a plant).

Avena fatua = test: Glasshouse post-emergence spray test, pinoxaden with adjuvant (Example 4); details: pinoxaden 7.5 or 15 g/ha, adjuvant 0.2%; mean over two rates, three replicates, 14 and 21 days
Description: as §7, §8

Alopecurus myosuroides = test: as above; details: pinoxaden 7.5 or 15 g/ha, adjuvant 0.2%; mean over two rates, three replicates, 14 and 21 days
Description: as §7, §8

Lolium perenne = test: as above; details: pinoxaden 7.5 or 15 g/ha, adjuvant 0.2%; mean over two rates, three replicates, 14 and 21 days
Description: as §7, §8

[6] = test system: Avena fatua, Lolium perenne, Setaria viridis and Alopecurus myosuroides; test: Glasshouse spray test, pinoxaden with carbonates A-E (Example 7), mean over four plant species; details: 22 days, mean over rates, replicates, four species
Protocol: (§9) Avena fatua, Lolium perenne, Setaria viridis and Alopecurus myosuroides seeds were sown into standard soil in pots and cultivated under controlled conditions in a glasshouse (at 20/16° C. day/night; 15 hours light; 65% humidity).
When the plants were at the vegetative stage of 2-3 leaves they were sprayed with an aqueous spray solution containing the herbicide pinoxaden and 0.2% v/v of one of the carbonates A, B, C, D and E (see Table 7).
The spray solution was applied with a cabinet tracksprayer with a flat fan nozzle (Teejet 11002VS) and an application volume of 200 liter/ha (at 2 bar). Pinoxaden was applied at either 7.5 or 15 grams of pesticide per hectare.
as §3, with “on.” for “on,”, “22” for “25”
The results shown in Table 11 below are mean averages over the two rates of pinoxaden, the three replicates and the four plant species, and are compared to the efficacy of pinoxaden in the absence of an adjuvant, and pinoxaden in the presence of tris(2-ethylhexyl)phosphate, used as a standard adjuvant for comparative purposes (at 0.2% by […] volume).

Setaria viridis = test: Glasshouse post-emergence spray test, pinoxaden with adjuvant (Example 4); details: pinoxaden 7.5 or 15 g/ha, adjuvant 0.2%; mean over two rates, three replicates, 14 and 21 days
Protocol: as §9, §7
The spray solution was applied with a cabinet tracksprayer with a flat fan nozzle (Teejet 11002VS) and an application volume of 200 liter/ha (at 2 bar). Pinoxaden was applied at either 7.5 or 15 grams of pesticide per hectare. The test plants were then grown on in a glasshouse under controlled conditions (at 24/18° C. day/night; 16 hours light; 65% humidity) and watered twice a day. After 14 and 21 days the test was evaluated for general crop injury (100% equals total damage to a plant; 0% equals no damage to a plant).
The results shown in Table 6 below are mean averages over the two rates of pinoxaden, three replicates and the two assessment timings, and are compared to the efficacy of pinoxaden in the absence of an adjuvant, and pinoxaden in the presence of the tris(2-ethylhexyl)phosphate [TEHP, used as a standard, for comparative purposes] (at 0.2% by volume).

## CC(C)C1C2CCC1c1c(NC(=O)c3cn(C)nc3C(F)F)cccc12 (stereo not drawn) [Isopyrazam]
Septoria tritici [1]
  Mean % infection: 65.1%
Septoria tritici [2]
  Mean % infection: 76.9%

## CS(=O)(=O)c1ccc(C(=O)C2C(=O)CCCC2=O)c([N+](=O)[O-])c1 [Mesotrione]
[3]
  Mean % Phytotoxicity: 33.71%
Digitaria sanguinalis
  Mean percentage kill DIGSA: 44.2%
Polygonum convulvulus
  Mean percentage kill POLCONV: 70.8%
Commelina benghalensis
  Mean percentage kill COMBEN: 53.3%
Brachiaria plantaginea
  Mean percentage kill BRAPL: 1.7%
[4]
  Mean percentage kill, Mean across species: 42.5 B %

## CCc1cc(C)cc(CC)c1-c1c(OC(=O)C(C)(C)C)n2n(c1=O)CCOCC2 [Pinoxaden]
[5]
  Mean percentage kill, Mean across species: 2.9 C %
Avena fatua
  Mean percentage kill AVENA FATUA: 10.0%
Alopecurus myosuroides
  Mean percentage kill ALOPECURUS MYOSUROIDES: 0%
Lolium perenne
  Mean percentage kill LOLIUM PERENNE: 1.7%
[6]; Table 11: pinoxaden 7.5 or 15 g/ha, compounds A-D or tris(2-ethylhexyl)phosphate 0.2% by volume
  Mean % Phytotoxicity: 4.25%
[6]; Table 12: pinoxaden 7.5 or 15 g/ha, compound E or tris(2-ethylhexyl)phosphate 0.2% by volume
  Mean % Phytotoxicity: 0%
Setaria viridis
  Mean percentage kill SETARIA VIRIDIS: 0%
